From US20230026808A1, “COMPOUNDS, COMPOSITIONS, AND METHODS FOR TREATING ISCHEMIA-REPERFUSION INJURY AND/OR LUNG INJURY” (YALE UNIVERSITY, priority 2019, published 2023)

Experiments:
Assay type in all cases: cell-based
[1] = system: mouse primary lung endothelial cells; assay: Bi-layer co-culture of neutrophils with endothelial cells, AKT phosphorylation; details: fMLP-stimulated neutrophils; SOD 60 U/ml, catalase 100 U/ml
Description: Mouse primary lung endothelial cells (MLEC) were first plated on the outside of the polycarbonate membrane (25,000 cells/cm^2) of the Transwell inserts (24-well type, 0.4-μm pore size, Corning, Inc. 353095), and placed upside down in the wells of the culture plate. After the cells had adhered, the Transwell inserts were inverted and reinserted into the wells of the plate. The medium was replaced 24 h after seeding with serum-free medium. SOD (60 U/ml), catalase (100 U/ml), or mock were added to the lower chambers 2 h later for 30 min. Mouse neutrophils stimulated with 5 μM fMLP were then plated on the top surface of the insert (6×10^6 cells/cm^2) for 30 min. At the end of the incubation period, neutrophils on the top side of the inserts were removed by cotton swabs, and endothelial cells on the other side of the inserts were lysed with SDS-PAGE sample buffer for Western analysis.

[2] = system: mouse pulmonary endothelial cells; assay: TEER of mouse endothelial cells co-cultured with neutrophils; details: fMLP-stimulated neutrophils; catalase 100 U/ml
Description: ECIS 8W10E+ arrays (Applied BioPhysics) were coated with 10 μg/ml of poly-D-lysine (PDL) and washed with sterile water. Complete EBM-2 media (300 μl) was added to each well for a quick impedance background check. Subsequently, immortalized mouse pulmonary endothelial cells were seeded in a density of 60,000 cells/well in 300 μl EBM-2 medium in the coated arrays and incubated them at 37° C. in a CO2 incubator. Electrical resistance of the cell layer was recorded continuously on an ECIS system (Applied BioPhysics) until a stable resistance of approximately 600-700 ohms was achieved, after which media were removed from wells and replaced with 100 μl of assay buffer (Hanks buffer with Ca^2+ and Mg^2+0.25% BSA). Cells were allowed to re-equilibrate at 37° C. for 2 hours, before 1 μl of SOD (60 U/ml), catalase (100 U/ml), or mock were added to wells for 30 min followed by addition of 50 μl of mouse neutrophils in assay buffer containing 5 μM fMLP. Data were collected real-time throughout the experiment. All ECIS measurements were analyzed at an AC frequency of 4 kHz, which was identified as the most sensitive frequency for this cell type by frequency scans along an entire frequency range (1 kHz-64 kHz). The TEER values were normalized against those co-cultured with WT neutrophils treated with mock.

[3] = system: primary cultured mouse lung endothelial cells; assay: H2O2 on primary cultured mouse lung endothelial cells (TEER, AKT phosphorylation); details: H2O2 at low concentrations

catalase
phospho-AKT elevation by co-cultured MAP3K2/3 DKO neutrophils [1]: abrogated | difference in TEER between DKO and WT neutrophil co-culture [2]: abrogated

OO [H2O2]
AKT phosphorylation [3]: stimulates AKT phosphorylation | trans-endothelial electrical resistance (TEER) [3]: enhanced trans-endothelial electrical resistance (TEER)
